In brackets after ≈: the same amount, converted by molar mass. Like-named read-outs stand apart in the source and are kept apart here.
Key:
[1] = system: HCMV recombinant mutant virus whose genome contains the prokaryotic beta-glucuronidase gene; experiment: microbe, parasite or virus in culture; assay type: cell-based, human cytomegalovirus; conditions: Human betaherpesvirus 5, Fibroblast, read-out: IC50 ug/ml HCMV, HCMV, human foreskin fibroblasts
From the text: Microtiter plate assay. Ninety-six well plate cultures of human foreskin fibroblasts are infected in the presence of inhibitor compound with a HCMV recombinant mutant virus whose genome contains the prokaryotic beta-glucuronidase gene (Jefferson, R. A., S. M. Burgess, and D. Hirsh. 1986. Beta-glucuronidase from Escherichia coli as a gene fusion marker. Proc. Natl. Acad. Sci. USA 83:8447-8451) whose expression is controlled by a viral promoter. An example of such a virus is RV145 (Jones, T. R., V. P. Muzithras, and Y. Gluzman. 1991. Replacement mutagenesis of the human cytomegalovirus genome: US10 and US11 gene products are nonessential. J. Virol. 65:5860-5872). Since it is under the control of a viral promoter, beta-glucuronidase expression is an indirect indicator of growth and replication of HCMV in this assay. At 96 hours post-infection, the infected cell lysates are prepared (using 50mM sodium phosphate [pH7.0] containing 0.1% Triton X-100 and 0.1% sarkosyl) and assayed for beta-glucuronidase activity using a substrate for the enzyme which when cleaved yields either a product which can be measured colorimetrically in a spectrophotometer or fluorescently in a microfluorimeter. Examples of such substrates are p-nitrophenyl-beta-D-glucuronide and methylumbelliferylglucuronide, respectively. The presence of an antiviral compound is indicated by the reduced expression of the HCMV genome resident beta-glucuronidase gene, compared to the absence of inhibitor. […] Data from this assay generated using varying amounts of inhibitor compound is also used to estimate the IC50 of an inhibitor compound.

VZV strain Ellen = experiment: VZV antiviral (ELISA) assay; assay type: cell-based; conditions: Human alphaherpesvirus 3, HFF; for inhibition at 10 µg/mL: read-out: % inhibition 10 ug/ml VZV
Protocol: For the generation of stock VZV to be used in the assay, VZV strain Ellen (ATCC #VR-1367) is used to infect human foreskin fibroblast (HFF) cells at low multiplicity (less than 0.1) and incubated overnight at 37°C in 5% CO2. After the overnight incubation, the mixture of uninfected and VZV-infected HFF infected cells are then harvested and added to each well of 96-well plates (3.5x10^4 cells in 100 µl DMEM supplemented with 2% FBS) which contain test compound or the reference standard drug control (in 100µl DMEM supplemented with 2% FBS per well). These cells are incubated for three days at 37°C in 5% CO2, then fixed for ELISA assay. The primary antibody is murine anti-VZV glycoprotein II monoclonal antibody (Applied Biosystems, Inc. #13-145-100) and the secondary antibody is goat anti-mouse IgG linked to β-galactosidase. Thus the extent of viral replication is determined by assessing β-galactosidase activity by quantifying the generation of the 4-methyl umbelliferone fluorescent cleavage product after addition of the methyl umbelliferyl-β-D-galactoside (Sigma #M1633) substrate on a microfluorimeter (365nm for excitation and 450nm for emission). Antiviral activity (IC50) of the test compound is determined by comparing the flourescence obtained in absence of compound to that obtained in the presence of compound.

HSV- I = experiment: HSV antiviral (ELISA) assay; assay type: cell-based; conditions: read-out: IC50 (ug/ml) HSV
Protocol: Vero cells (ATCC #CCL-81) are plated on 96-well tissue culture plates at 3.5x10^4 cells per 100µl tissue culture DMEM (Dulbecco's modified Eagle media) supplemented with 2% fetal bovine serum (FBS) in each well. After overnight incubation @ 37°C (in 5% CO2) and 30 minutes prior to infection with HSV- I (multiplicity of infection equal to 0.006), cells are either untreated, or treated with test compound (multiple concentrations) or reference standard drug control. After approximately 24 hours post-infection incubation @ 37°C (in 5% CO2), cells are fixed for ELISA assay. The primary antibody is murine anti-HSV glycoprotein D monoclonal primary antibody and the secondary antibody is goat anti-mouse IgG linked to β-galactosidase. Thus the extent of viral replication is determined by assessing β-galactosidase activity by quantifying the generation of the 4-methyl umbelliferone fluorescent cleavage product after addition of the methyl umbelliferyl-β-D-galactoside (Sigma #M1633) substrate on a microfluorimeter (365nm for excitation and 450nm for emission). Antiviral activity (IC50) of the test compound is determined by comparing the flourescence obtained in absence of compound to that obtained in the presence of compound.

SMILES	IC50 [1]	inhibition at 10 µg/mL (VZV strain Ellen)	IC50 (VZV strain Ellen; read-out: IC50 (ug/ml) VZV)	IC50 (HSV- I; HSV- I, Vero cells, ELISA)	IC50 (HSV- I; Vero)	IC50 (VZV strain Ellen; read-out: IC50 (ug/ml) VZV, VZV strain Ellen, HFF cells, ELISA)
COc1cc(OC)c(NC(=S)Nc2ccc(NC(=O)c3ccccc3C)cc2)cc1Cl [Example 114, N-{4-[3-(5-Chloro-2,4-dimethoxy-phenyl)-thioureido]-phenyl}-2-methyl-benzamide]	5 µg/mL (≈ 11 µM)	17%	> 10 µg/mL	0.3 µg/mL (≈ 0.658 µM)		
COc1cc(OC)c(NC(=S)Nc2ccc(NC(=O)c3ccccc3OC(C)=O)cc2)cc1Cl [Example 115, Acetic acid 2-{4-[3-(5-chloro-2,4-dimethoxy-phenyl)-thioureido]-phenyl-carbamoyl}-phenyl ester]	8 µg/mL (≈ 16 µM)	98%	4 µg/mL (≈ 8 µM)	4 µg/mL (≈ 8 µM)		
COc1cc(OC)c(NC(=S)Nc2ccc(NC(=O)c3ccc(F)cc3)cc2)cc1Cl [Example 116, N-{4-[3-(5-Chloro-2,4-dimethoxy-phenyl)-thioureido]-phenyl}-4-fluoro-benzamide]	3 µg/mL (≈ 6.52 µM)	0%	> 10 µg/mL		2 µg/mL (≈ 4.35 µM)	
COc1cc(OC)c(NC(=S)Nc2ccc(NC(=O)c3cccc(F)c3)cc2)cc1Cl [Example 117, N-{4-[3-(5-Chloro-2,4-dimethoxy-phenyl)-thioureido]-phenyl}-3-fluoro-benzamide]	3 µg/mL (≈ 6.52 µM)	15%	> 10 µg/mL	0.3 µg/mL (≈ 0.652 µM)		
COc1cc(OC)c(NC(=S)Nc2ccc(NC(=O)c3ccccc3F)cc2)cc1Cl [Example 118, N-{4-[3-(5-Chloro-2,4-dimethoxy-phenyl)-thioureido]-phenyl}-2-fluoro-benzamide]	3 µg/mL (≈ 6.52 µM)				0.15 µg/mL (≈ 0.326 µM)	> 10 µg/mL
COc1cc(OC)c(NC(=S)Nc2ccc(NC(=O)c3ccccc3OC)cc2)cc1Cl [Example 119, N-{4-[3-(5-Chloro-2,4-dimethoxy-phenyl)-thioureido]-phenyl}-2-methoxy-benzamide]	> 10 µg/mL	1%	> 10 µg/mL	0.5 µg/mL (≈ 1.06 µM)		
COc1cccc(C(=O)Nc2ccc(NC(=S)Nc3cc(Cl)c(OC)cc3OC)cc2)c1 [Example 120, N-{4-[3-(5-Chloro-2,4-dimethoxy-phenyl)-thioureido]-phenyl}-3-methoxy-benzamide]	5 µg/mL (≈ 10.6 µM)	25%	> 10 µg/mL	0.8 µg/mL (≈ 1.7 µM)		
COc1ccc(C(=O)Nc2ccc(NC(=S)Nc3cc(Cl)c(OC)cc3OC)cc2)cc1 [Example 121, N-{4-[3-(5-Chloro-2,4-dimethoxy-phenyl)-thioureido]-phenyl}-4-methoxy-benzamide]	6 µg/mL (≈ 12.7 µM)	0%	> 10 µg/mL	0.3 µg/mL (≈ 0.636 µM)		
COc1cc(OC)c(NC(=S)Nc2ccc(NC(=O)c3ccccc3)cc2)cc1Cl [Example 122, N-{4-[3-(5-Chloro-2,4-dimethoxy-phenyl)-thioureido]-phenyl}-benzamide]	4 µg/mL (≈ 9.05 µM)	13%	> 10 µg/mL	0.3 µg/mL (≈ 0.679 µM)		
COc1c(Cl)cc(NC(=S)Nc2ccc(NC(=O)c3ccc(F)cc3)cc2)cc1Cl [Example 133, N-{4-[3-(3,5-Dichloro-4-methoxy-phenyl)-thioureido]-phenyl}-4-fluoro-benzamide]	0.6 µg/mL (≈ 1.29 µM)	36%	> 10 µg/mL	7 µg/mL (≈ 15.1 µM)		
COc1cc(OC)c(NC(=S)Nc2ccc(NC(=O)c3cccc(NC(C)=O)c3)cc2)cc1Cl [Example 134, 3-Acetylamino-N-{4-[3-(5-chloro-2,4-dimethoxy-phenyl)-thioureido]-phenyl}-benzamide]	4 µg/mL (≈ 8.02 µM)	50%	> 10 µg/mL	> 10 µg/mL		
O=C(Nc1ccc(NC(=S)Nc2cccc(Cl)c2)cc1)c1ccccc1F [Example 944, N-{4-[3-(3-Chloro-phenyl)-thioureido]-phenyl}-2-fluoro-benzamide]	3 µg/mL (≈ 7.5 µM)				> 10 µg/mL	
O=C(Nc1ccc(NC(=S)Nc2ccc(Cl)cc2)cc1)c1ccccc1F [Example 946, N-{4-[3-(4-Chloro-phenyl)-thioureido]-phenyl}-2-fluoro-benzamide]	> 10 µg/mL				> 10 µg/mL	
